Biological target: T1, recombinant human GR (Homo sapiens, UniProt P04150)
T1 construct: purchased Panvera/Invitrogen P2812 (kit P2893)
T1 sequence (P04150 1-777): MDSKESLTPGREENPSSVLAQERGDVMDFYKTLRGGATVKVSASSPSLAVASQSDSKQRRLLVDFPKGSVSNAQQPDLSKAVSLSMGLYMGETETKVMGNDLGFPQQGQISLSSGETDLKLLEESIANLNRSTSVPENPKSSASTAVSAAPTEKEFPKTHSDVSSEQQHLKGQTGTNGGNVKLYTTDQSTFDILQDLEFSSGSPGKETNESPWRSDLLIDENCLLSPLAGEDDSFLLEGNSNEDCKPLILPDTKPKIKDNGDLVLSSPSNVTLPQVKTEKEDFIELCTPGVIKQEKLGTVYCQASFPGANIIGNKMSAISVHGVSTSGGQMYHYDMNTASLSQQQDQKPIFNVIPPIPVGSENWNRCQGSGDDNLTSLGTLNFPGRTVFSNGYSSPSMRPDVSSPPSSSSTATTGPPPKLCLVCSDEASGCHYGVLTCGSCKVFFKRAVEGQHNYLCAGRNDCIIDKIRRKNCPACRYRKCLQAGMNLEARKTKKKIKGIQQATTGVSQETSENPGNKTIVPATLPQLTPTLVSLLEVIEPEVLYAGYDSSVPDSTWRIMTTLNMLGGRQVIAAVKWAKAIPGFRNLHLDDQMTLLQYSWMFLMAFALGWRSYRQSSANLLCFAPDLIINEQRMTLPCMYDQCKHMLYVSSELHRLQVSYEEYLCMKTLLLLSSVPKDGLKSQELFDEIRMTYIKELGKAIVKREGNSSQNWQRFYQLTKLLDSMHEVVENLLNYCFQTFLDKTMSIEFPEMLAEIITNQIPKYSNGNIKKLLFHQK
Experiment: Human Glucocorticoid Receptor (GR) fluorescence polarization binding assay (GRhuFL_FP_v2)
Conditions: GS Red tracer, 2 hours at room temperature, 100% control 10 μM Dexamethasone, read-out: GRhuFL_FP_v2 (GR-binders) IC50
Procedure: Human Glucocorticoid Receptor (GR) Assay
The assay is based on a commercial kit from Panvera/Invitrogen (Part number P2893). The assay technology is fluorescence polarization. […] The GR and Stabilizing Peptide reagents are stored at −70° C. while the GS Red is stored at −20° C. Also included in the kit are 1M DTT (Panvera, Part number P2325, stored at −20° C.) and GR Screening buffer 10× (Panvera, Part number P2814, stored at −70° C. initially but once thawed stored at room temperature). Avoid repeated freeze/thaws for all reagents. The GR Screening buffer 10× comprises 100 mM potassium phosphate, 200 mM sodium molybdate, 1 mM EDTA and 20% DMSO.
0% control was 100% DMSO and 100% control was 10 μM Dexamethasone. Background solution (8 μL; assay buffer 10×, Stabilizing Peptide, DTT and ice cold MQ water) was added to the background wells. GS Red solution (7 μL; assay buffer 10×, Stabilizing Peptide, DTT, GS Red and ice cold water) was added to all wells except background wells. GR solution (7 μL; assay buffer 10×, Stabilizing Peptide, DTT, GR and ice cold water) was added to all wells. The plate was sealed and incubated in a dark at room temperature for 2 hours.

SMILES	IC50 [nM]
Cc1cc(C)c(S(=O)(=O)N[C@H]2CCN(c3cccc4ncccc34)C2)c(C)c1 [Example 1, 2,4,6-Trimethyl-N-[(3S)-1-quinolin-5-ylpyrrolidin-3-yl]benzenesulfonamide]	48
O=S(=O)(N[C@H]1CCN(c2cccc3ncccc23)C1)c1c(Cl)cc(Cl)cc1Cl [Example 2, 2,4,6-Trichloro-N-[(3S)-1-quinolin-5-ylpyrrolidin-3-yl]benzenesulfonamide]	17
O=S(=O)(N[C@H]1CCN(c2cccc3c2cnn3-c2ccc(F)cc2)C1)c1c(Cl)cc(Cl)cc1Cl [Example 4, 2,4,6-Trichloro-N-{(3S)-1-[1-(4-fluorophenyl)-1H-indazol-4-yl]pyrrolidin-3-yl}benzenesulfonamide]	25
Cc1cc(Cl)cc(Cl)c1S(=O)(=O)N[C@H]1CCN(c2cccc3ncccc23)C1 [Example 6, 2,4-Dichloro-6-methyl-N-[(3S)-1-quinolin-5-ylpyrrolidin-3-yl]benzenesulfonamide]	26
Cc1nn(C2CCCC2)c(C)c1S(=O)(=O)N[C@H]1CCN(c2cccc3c2cnn3-c2ccc(F)cc2)C1 [Example 9, 1-Cyclopentyl-N-{(3S)-1-[1-(4-fluorophenyl)-1H-indazol-4-yl]pyrrolidin-3-Yl}-3,5-dimethyl-1H-pyrazole-4-sulfonamide]	120

Second part, the molecule after the results:

IC50 [nM]	SMILES
19	O=S(=O)(N[C@H]1CCN(c2cccc3c2cnn3-c2ccc(F)nc2)C1)c1c(Cl)cc(Cl)cc1Cl [Example 3, 2,4,6-Trichloro-N-[(3S)-1-[1-(6-fluoropyridin-3-yl)-1H-indazol-4-yl]pyrrolidin-3-yl]benzenesulfonamide]
25	Cc1cc(Cl)cc(Cl)c1S(=O)(=O)N[C@H]1CCN(c2cccc3c2cnn3-c2ccc(F)nc2)C1 [Example 5, 2,4-Dichloro-N-{(3S)-1-[1-(6-fluoropyridin-3-yl)-1H-indazol-4-yl]pyrrolidin-3-yl}-6-methylbenzenesulfonamide]
38	Cc1cc(C)c(S(=O)(=O)N[C@H]2CCN(c3cccc4c3cnn4-c3ccc(F)nc3)C2)c(C)c1 [Example 7, N-{(3S)-1-[1-(6-Fluoropyridin-3-yl)-1H-indazol-4-yl]pyrrolidin-3-yl}-2,4,6-trimethylbenzenesulfonamide]
